Data taken from US11040052B2, “Methods and pharmaceutical compositions for modulating autophagy in a subject in need thereof” (INSERM (INSTITUT NATIONAL DE LA SANTE ET DE LA RECHERCHE …, priority 2013, dated 2021).
“Also recorded” adds a separate entry of the source.

What was measured:
AcCoA levels = assay: Targeted analysis of AcCoA levels in cultured cells (HPLC-MS); assay type: cell-based, human; settings: for AcCoA levels: cells kept in rich medium; for cytosolic AcCoA levels: cytosolic fraction; for AcCoA levels in starved cells: nutrient-depleted (starved) cells in vitro
Method: Cells were trypsinized, pelleted at 1000 rpm for 4 min, washed with PBS and pelleted again at 1000 rpm for 4 min. Cells were then resuspended in 5 ml of ice-cold hyposmotic buffer and keep on ice for 5 min. Cells were broken to release nuclei using a pre-chilled Dounce homogenizer (20 strokes with a tight pestle) and then were then centrifuged at 228 g.
For in vitro experiments, cell pellets were resuspended in 300 μL of water with HEPES and EDTA (pH 7.4) at 1 mM containing internal standard acetylcoenzyme A (2-C13) at 1 mg/L, vortexed and heated at 100° C. for 1 min. Samples were incubated in liquid nitrogen for 1 min and thawed at room temperature two times. They were let for 1 h at −20° C. and centrifuged at 4° C. during 15 min at 13,000 g. Supernatants were transferred in HPLC vials and injected in HPLC/MS or kept at −80° C. until injection. For in vivo experiments, frozen tissues were placed in ice-cold homogenization tubes containing ceramic beads. Five μL of ice-cold methanol/water (80/20; v/v) were added for 1 mg of tissue. Tissues were homogenized two times for 20 s at 5,500 rpm using Precellys 24 tissue homogenator (Bertin Technologies, Montigny-le-Bretonneux, France). Samples were placed 10 min on ice. Next they were centrifuged at 4° C. during 15 min at 13,000 g. Supernatants were transferred in HPLC vials and injected in HPLC-MS system or kept at −80° C. until injection.
Targeted analyses were performed on Rapid Resolution Liquid Chromatography (RRLC) 1200SL system (Agilent Technologies, Waldbronn, Germany) coupled to a Triple Quadruple QQQ 6410 mass spectrometer (Agilent Technologies). RRLC analysis was done on 150×2.1 mm, 3.5 μm Eclipse Plus SB-Aq column with a pre-column 30 mm×2.1 mm 3.5 μm Eclipse plus (Agilent Technologies) with water containing 10 mmol/L of ammonium acetate and 0.01% of acetic acid in channel A and acetonitrile in channel B in gradient mode at a flow rate of 0.3 mL·min^−1: t=0 min 2% B; t=9 min 95% B; t=11 min 95% B; re-equilibration time of 3 min. Mass spectrometer analysis was done in positive electrospray ionization mode at +4 kV on the QQQ system operating in MRM mode. MRM transitions were optimized with standard of AcCoA and AcCoA A 2-C^13 with direct infusion. Two transitions were recorded for each compound; • AcCoA 810>303 CE (collision energy) 28V; fragmentor 180V • 810>428 CE 20V • AcCoA 2-C13 812>305 CE 28V; fragmentor 180V • 812>428 CE 24V […]

[1] = test system: cytoplasts of U2OS cells stably expressing GFP-LC3; assay: Autophagic flux in cytoplasts (enucleated GFP-LC3 cells); assay type: cell-based, human; settings: presence of BafA1, compared with nucleated control cells
Method: U2OS cells stably expressing GFP-LC3 were trypsinized and incubated in 3 ml of complete medium supplemented with […] cytochalasin B for 45 min at 37° C. This cell suspension was layered onto a discontinuous Ficoll density gradient (3 mL of 55%, 1 mL of 90%, and 3 mL of 100% Ficoll-Paques; GE Healthcare) in complete medium containing […] cytochalasin B. Gradients were prepared in ultracentrifuge tubes and pre-equilibrated at 37° C. in a CO2 incubator overnight. Gradients containing cell suspensions were centrifugated in a prewarmed rotor (SW41; Beck-man Coulter) at 30,000 g for 30 min at 32° C. The cytoplast-enriched fraction was collected from the interface between 55 and 90% Ficoll layers, washed in complete medium, and incubated for 4 h at 37° C. before treatments.

cellular ATP levels = assay: Cellular ATP levels; assay type: cell-based
EP300 = assay: Acetylation of EP300 K1499 in starved cells; assay type: cell-based; settings: nutrient-free conditions
[2] = test system: turnover of long-lived proteins; assay: Turnover of long-lived proteins; assay type: cell-based, human; settings: for starvation-induced turnover of long-lived proteins: starved cells

Row | SMILES | AcCoA levels (AcCoA levels) | cytosolic AcCoA levels (AcCoA levels) | autophagic flux in cytoplasts [1] | cellular ATP levels in starved cells (cellular ATP levels) | AcCoA levels in starved cells (AcCoA levels) | starvation-induced deacetylation of the K1499 residue in EP300 (EP300) | starvation-induced turnover of long-lived proteins [2] | autophagy-dependent turnover of long-lived proteins ([2]; cells in rich medium) | cellular ATP levels (cellular ATP levels; cells in rich medium)
1 | O=C(O)c1cccc(C(=O)O)c1C(=O)O [BTC, 1,2,3-benzenetricarboxylate] | reduced both AcCoA levels | induced the triad of AcCoA depletion | stimulated autophagy in cytoplasts as efficiently as in nucleated control cells; also recorded: stimulated autophagic flux in cytoplasts as efficiently as in nucleated control cells |  |  |  |  |  | 
2 | COC(=O)CCC(=O)C(=O)OC [DMKG, dimethyl-α-ketoglutarate] |  | also raised the cytosolic concentration of AcCoA |  | induced a decrease in cellular ATP | increased cellular AcCoA levels; also recorded: maintained high AcCoA | could be avoided |  |  | 
3 | O=C(O)CC(O)(C(=O)O)C(O)C(=O)O (centres unmarked) [HC, hydroxycitrate] | reduced both AcCoA levels | reduced cytoplasmic AcCoA levels | stimulated autophagy in cytoplasts as efficiently as in nucleated control cells; also recorded: stimulated autophagic flux in cytoplasts as efficiently as in nucleated control cells |  |  |  |  |  | 
4 | CC(C)CC(=O)C(=O)O [KIC, ketoisocaproic acid] |  | also raised the cytosolic concentration of AcCoA |  | induced a decrease in cellular ATP | increase in AcCoA levels; also recorded: sufficient to avoid AcCoA depletion | could be avoided | inhibited the starvation-induced increase in autophagic flux and turnover of long-lived proteins |  | 
5 | O=C(O)CCCCC1CCSS1 (centres unmarked) [LA, lipoic acid] |  | also raised the cytosolic concentration of AcCoA |  | induced a decrease in cellular ATP | increased both cellular AcCoA levels; also recorded: maintain high AcCoA | could be avoided | blunted |  | 
6 | N#CC(=Cc1cn(-c2ccccc2)c2ccccc12)C(=O)O [UK5099, 2-Cyano-3-(1-phenyl-1H-indol-3-yl)-2-propenoic acid] | reduced both AcCoA levels; also recorded: depletion of intracellular AcCoA | also raised the cytosolic concentration of AcCoA | stimulated autophagy in cytoplasts as efficiently as in nucleated control cells; also recorded: stimulated autophagic flux in cytoplasts as efficiently as in nucleated control cells |  |  |  |  | increased the autophagy-dependent turnover of long-lived proteins | without reducing ATP
7 | CC(C)C[C@H](N)C(=O)O [leucine] |  |  |  |  | sufficient to maintain high AcCoA levels |  |  |  | 
